# Data taken from patent US20220204476A1, “RNA VIRUS INHIBITOR COMPOUNDS AND USES THEREOF” (The Governors of the University of Alberta, priority 2020, published 2022).
# Where two headings read alike, the source gives them in different places.
# What was measured:
# SARS-CoV-2 3CLP = SARS-CoV-2 3CLP (Severe acute respiratory syndrome coronavirus 2, UniProt P0DTD1); assay: SARS-CoV-2 3CLP inhibition, FRET-based cleavage assay; type: biochemical; settings: 100 μM substrate, 37° C., 10 min incubation, pH 7.8
# SARS-CoV-2 = SARS-CoV-2 in vitro plaque reduction assay in Vero E6 cells; type: cell-based; settings: plaques counted after 48 h, >5 μM = did not reduce plaque numbers by half at 10 μM, read-out: SARS-CoV-2 Antiviral EC50
# [1] = 80 nM SARS-CoV-2 3CLP, read-out: 3CL Protease IC50
# [2] = Severe acute respiratory syndrome coronavirus 2, Vero C1008, MOI 0.0001 pfu/cell
# [3] = 3CL Protease IC50, 80 nM SARS-CoV-2 3CLP
compound,measurement,setting,value
"CC(C)C[C@H](NCC1Cc2ccccc2O1)C(=O)N[C@H](C#N)C[C@@H]1CCCNC1=O (single isomer, unassigned) [Compound 96]",IC50,SARS-CoV-2 3CLP; [1],46000 nM
same,EC50,SARS-CoV-2; [2],> 5 µM
"CC(C)C[C@H](NCC1Cc2ccccc2O1)C(=O)N[C@H](C#N)C[C@@H]1CCCNC1=O (single isomer, unassigned) [Compound 97]",IC50,SARS-CoV-2 3CLP; [1],> 500000 nM
same,EC50,SARS-CoV-2; MOI 0.0001 pfu/cell,> 5 µM
"COc1cccc2[nH]c(C(=O)N[C@@H](CC(C)C)C(=O)N[C@@H](C[C@@H]3CCCNC3=O)C(=O)COC(=O)C(C)(C)C)cc12 [Compound 1, (3S)-3-{[N-(4-methoxy-1H-indole-2-carbonyl)-L-leucyl]amino}-2-oxo-4-[(3S)-2-oxopiperidin-3-yl]butyl 2,2-dimethylpropanoate]",IC50,SARS-CoV-2 3CLP; [1],64 nM
same,EC50,SARS-CoV-2; [2],> 5 µM
"COc1cccc2[nH]c(C(=O)N[C@@H](CC(C)C)C(=O)N[C@@H](C[C@@H]3CCCNC3=O)C(=O)COC(=O)c3ccccc3)cc12 [Compound 2, (3S)-3-{[N-(4-methoxy-1H-indole-2-carbonyl)-L-leucyl]amino}-2-oxo-4-[(3S)-2-oxopiperidin-3-yl]butyl benzoate]",IC50,SARS-CoV-2 3CLP; [1],64 nM
same,EC50,SARS-CoV-2; [2],> 5 µM
"COc1cccc2[nH]c(C(=O)N[C@@H](CC(C)C)C(=O)N[C@@H](C[C@@H]3CCCNC3=O)C(=O)COC(=O)c3ccccn3)cc12 [Compound 3, (3S)-3-{[N-(4-methoxy-1H-indole-2-carbonyl)-L-leucyl]amino}-2-oxo-4-[(3S)-2-oxopiperidin-3-yl]butyl pyridine-2-carboxylate]",IC50,SARS-CoV-2 3CLP; [3],130 nM
same,EC50,SARS-CoV-2; [2],> 5 µM
"COc1cccc2[nH]c(C(=O)N[C@@H](CC(C)C)C(=O)N[C@@H](C[C@@H]3CCCNC3=O)C(=O)COC(=O)c3cccnc3)cc12 [Compound 4, (3S)-3-{[N-(4-methoxy-1H-indole-2-carbonyl)-L-leucyl]amino}-2-oxo-4-[(3S)-2-oxopiperidin-3-yl]butyl pyridine-3-carboxylate]",IC50,SARS-CoV-2 3CLP; [1],4 nM
same,EC50,SARS-CoV-2; [2],> 5 µM
"COc1cccc2[nH]c(C(=O)N[C@@H](CC(C)C)C(=O)N[C@@H](C[C@@H]3CCCNC3=O)C(=O)COC(=O)c3c(F)c(F)c(F)c(F)c3F)cc12 [Compound 7, (3S)-3-{[N-(4-methoxy-1H-indole-2-carbonyl)-L-leucyl]amino}-2-oxo-4-[(3S)-2-oxopiperidin-3-yl]butyl pentafluorobenzoate]",EC50,SARS-CoV-2; [2],> 5 µM
"COc1cccc2[nH]c(C(=O)N[C@@H](CC(C)C)C(=O)N[C@@H](C[C@@H]3CCCNC3=O)C(=O)COC(=O)c3ccncc3)cc12 [Compound 8, (3S)-3-{[N-(4-methoxy-1H-indole-2-carbonyl)-L-leucyl]amino}-2-oxo-4-[(3S)-2-oxopiperidin-3-yl]butyl pyridine-4-carboxylate]",EC50,SARS-CoV-2; [2],> 5 µM
"COc1cccc2[nH]c(C(=O)N[C@@H](CC(C)C)C(=O)N[C@@H](C[C@@H]3CCCNC3=O)C(=O)COC(=O)C3(C)COC(C)(C)OC3)cc12 [Compound 9, (3S)-3-{[N-(4-methoxy-1H-indole-2-carbonyl)-L-leucyl]amino}-2-oxo-4-[(3S)-2-oxopiperidin-3-yl]butyl 2,2,5-trimethyl-1,3-dioxane-5-carboxylate]",IC50,SARS-CoV-2 3CLP; [1],55 nM
same,EC50,SARS-CoV-2; [2],> 5 µM
"COc1cccc2[nH]c(C(=O)N[C@@H](CC(C)C)C(=O)N[C@@H](C[C@@H]3CCCNC3=O)C(=O)COC(=O)c3cccnc3C(F)(F)F)cc12 [Compound 10, (3S)-3-{[N-(4-methoxy-1H-indole-2-carbonyl)-L-leucyl]amino}-2-oxo-4-[(3S)-2-oxopiperidin-3-yl]butyl 2-(trifluoromethyl)pyridine-3-carboxylate]",IC50,SARS-CoV-2 3CLP; [1],52 nM
same,EC50,SARS-CoV-2; [2],> 5 µM
"COc1cccc2[nH]c(C(=O)N[C@@H](CC(C)C)C(=O)N[C@@H](C[C@@H]3CCCNC3=O)C(=O)COC(=O)c3ccc(C(C)(C)C)nc3)cc12 [Compound 11, (3S)-3-{[N-(4-methoxy-1H-indole-2-carbonyl)-L-leucyl]amino}-2-oxo-4-[(3S)-2-oxopiperidin-3-yl]butyl 6-tert-butylpyridine-3-carboxylate]",IC50,SARS-CoV-2 3CLP; [1],19 nM
same,EC50,SARS-CoV-2; [2],> 5 µM
"COc1cccc2[nH]c(C(=O)N[C@@H](CC(C)C)C(=O)N[C@@H](C[C@@H]3CCCNC3=O)C(=O)COC(=O)C3(C#N)CC3)cc12 [Compound 12, (3S)-3-{[N-(4-methoxy-1H-indole-2-carbonyl)-L-leucyl]amino}-2-oxo-4-[(3S)-2-oxopiperidin-3-yl]butyl 1-cyanocyclopropane-1-carboxylate]",IC50,SARS-CoV-2 3CLP; [1],16 nM
same,EC50,SARS-CoV-2; [2],> 5 µM
"COc1cccc2[nH]c(C(=O)N[C@@H](CC(C)C)C(=O)N[C@@H](C[C@@H]3CCCNC3=O)C(=O)COC(=O)C(C)(C)C#N)cc12 [Compound 14, (3S)-3-{[N-(4-methoxy-1H-indole-2-carbonyl)-L-leucyl]amino}-2-oxo-4-[(3S)-2-oxopiperidin-3-yl]butyl 2-cyano-2-methylpropanoate]",IC50,SARS-CoV-2 3CLP; [1],22 nM
same,EC50,SARS-CoV-2; [2],> 5 µM
"COc1cccc2[nH]c(C(=O)N[C@@H](CC(C)C)C(=O)N[C@@H](C[C@@H]3CCCNC3=O)C(=O)COC(=O)C3(C(F)(F)F)CC3)cc12 [Compound 15, (3S)-3-{[N-(4-methoxy-1H-indole-2-carbonyl)-L-leucyl]amino}-2-oxo-4-[(3S)-2-oxopiperidin-3-yl]butyl 1-(trifluoromethyl)cyclopropane-1-carboxylate]",IC50,SARS-CoV-2 3CLP; [1],41 nM
same,EC50,SARS-CoV-2; [2],> 5 µM
"COc1cccc2[nH]c(C(=O)N[C@@H](CC(C)C)C(=O)N[C@@H](C[C@@H]3CCCNC3=O)C(=O)COC(=O)C3(C)OCCCO3)cc12 [Compound 16, (3S)-3-{[N-(4-methoxy-1H-indole-2-carbonyl)-L-leucyl]amino}-2-oxo-4-[(3S)-2-oxopiperidin-3-yl]butyl 2-methyl-1,3-dioxane-2-carboxylate]",IC50,SARS-CoV-2 3CLP; [3],13 nM
same,EC50,SARS-CoV-2; [2],> 5 µM
"CC(C)C[C@H](NC(=O)C1CCCC1)C(=O)N[C@@H](C[C@@H]1CCCNC1=O)C(=O)COC(=O)c1cccnc1 [Compound 17, (3S)-3-{[N-(cyclopentanecarbonyl)-L-leucyl]amino}-2-oxo-4-[(3S)-2-oxopiperidin-3-yl]butyl pyridine-3-carboxylate]",IC50,SARS-CoV-2 3CLP; [1],4990 nM
same,EC50,SARS-CoV-2; [2],> 5 µM
"COc1cccc2[nH]c(C(=O)N[C@@H](CC(C)C)C(=O)N[C@@H](C[C@@H]3CCCNC3=O)C(=O)COC(=O)C3(C#N)CCCC3)cc12 [Compound 19, (3S)-3-{[N-(4-methoxy-1H-indole-2-carbonyl)-L-leucyl]amino}-2-oxo-4-[(3S)-2-oxopiperidin-3-yl]butyl 1-cyanocyclopentane-1-carboxylate]",IC50,SARS-CoV-2 3CLP; [1],26 nM
same,EC50,SARS-CoV-2; [2],> 5 µM
"COc1cccc2[nH]c(C(=O)N[C@@H](CC(C)C)C(=O)N[C@@H](C[C@@H]3CCCNC3=O)C(=O)COC(=O)C3(C(F)(F)F)CCCCC3)cc12 [Compound 20, (3S)-3-{[N-(4-methoxy-1H-indole-2-carbonyl)-L-leucyl]amino}-2-oxo-4-[(3S)-2-oxopiperidin-3-yl]butyl 1-(trifluoromethyl)cyclohexane-1-carboxylate]",IC50,SARS-CoV-2 3CLP; [1],86 nM
same,EC50,SARS-CoV-2; [2],0.71 µM
"COc1cccc2[nH]c(C(=O)N[C@@H](CC(C)C)C(=O)N[C@@H](C[C@@H]3CCCNC3=O)C(=O)COC(=O)c3sc(C)nc3C(F)(F)F)cc12 [Compound 21, (3S)-3-{[N-(4-methoxy-1H-indole-2-carbonyl)-L-leucyl]amino}-2-oxo-4-[(3S)-2-oxopiperidin-3-yl]butyl 2-methyl-4-(trifluoromethyl)-1,3-thiazole-5-carboxylate]",IC50,SARS-CoV-2 3CLP; [1],18 nM
same,EC50,SARS-CoV-2; [2],> 5 µM
"COc1cccc2[nH]c(C(=O)N[C@@H](CC(C)C)C(=O)N[C@@H](C[C@@H]3CCCNC3=O)C(=O)COC(=O)c3cnc(C)cc3C)cc12 [Compound 22, (3S)-3-{[N-(4-methoxy-1H-indole-2-carbonyl)-L-leucyl]amino}-2-oxo-4-[(3S)-2-oxopiperidin-3-yl]butyl 4,6-dimethylpyridine-3-carboxylate]",IC50,SARS-CoV-2 3CLP; [1],17 nM
same,EC50,SARS-CoV-2; [2],> 5 µM
"COc1cccc2[nH]c(C(=O)N[C@@H](CC(C)C)C(=O)N[C@@H](C[C@@H]3CCCNC3=O)C(=O)COC(=O)c3c(C)cc(C)nc3C)cc12 [Compound 23, (3S)-3-{[N-(4-methoxy-1H-indole-2-carbonyl)-L-leucyl]amino}-2-oxo-4-[(3S)-2-oxopiperidin-3-yl]butyl 2,4,6-trimethylpyridine-3-carboxylate]",IC50,SARS-CoV-2 3CLP; [3],36 nM
"COc1cccc2[nH]c(C(=O)N[C@@H](CC(C)C)C(=O)N[C@H](C#N)C[C@@H]3CCNC3=O)cc12 [Compound 24, N-[(2S)-1-({(1S)-1-cyano-2-[(3S)-2-oxopyrrolidin-3-yl]ethyl}amino)-4-methyl-1-oxopentan-2-yl]-4-methoxy-1H-indole-2-carboxamide]",EC50,SARS-CoV-2; [2],> 5 µM
"COc1cccc2[nH]c(C(=O)N[C@@H](CC(C)C)C(=O)N[C@@H](C[C@@H]3CCNC3=O)C(=O)COC(=O)c3c(C(F)(F)F)cc(C)nc3C)cc12 [Compound 26, (3S)-3-{[N-(4-methoxy-1H-indole-2-carbonyl)-L-leucyl]amino}-2-oxo-4-[(3S)-2-oxopyrrolidin-3-yl]butyl 2,6-dimethyl-4-(trifluoromethyl)pyridine-3-carboxylate]",IC50,SARS-CoV-2 3CLP; [1],17 nM
"COc1cccc2[nH]c(C(=O)N[C@@H](CC(C)C)C(=O)N[C@@H](C[C@@H]3CCCNC3=O)C(=O)COC(=O)c3c(C)nc(C)nc3C)cc12 [Compound 72, 3-{[N-(4-methoxy-1H-indole-2-carbonyl)leucyl]amino}-2-oxo-4-(2-oxopiperidin-3-yl)butyl 2,4,6-trimethylpyrimidine-5-carboxylate]",IC50,SARS-CoV-2 3CLP; [1],22 nM
"[2H]C1([2H])CC[C@@H](C[C@@H](C#N)NC(=O)[C@H](CC(C)(C)C)NC(=O)c2cc3c(OC)cccc3[nH]2)C(=O)N1 [Compound 104, N-[(2S)-1-({(1S)-1-cyano-2-[(3S)-2-oxo(6,6-d2)piperidin-3-yl]ethyl}amino)-4,4-dimethyl-1-oxopentan-2-yl]-4-methoxy-1H-indole-2-carboxamide]",EC50,SARS-CoV-2; [2],> 5 µM
